Article PMC10443802, “Targeting a xenobiotic transporter to ameliorate vincristine-induced sensory neuropathy” (JCI Insight, 2023)
Values joined by “and” are separate entries in the source; they are usually repeats but may differ in a detail not shown here. Equal entries are not always repeated.

Assays:
Format in all cases: in vitro ADME
[1] = molecular target: hASBT (Homo sapiens, UniProt Q12908); test: Vincristine uptake screen, HeLa cells overexpressing hASBT
Protocol: (§1) Relative uptake is expressed as percentage change compared with empty vector controls (n = 4–14 per group). […] Human OATP1B1 and OATP1B3 transporter–overexpressed cells were used as positive controls; empty vector controls were used as the negative control. […] Mechanical allodynia (C), thermal hyperalgesia (D), and sciatic nerve maximal action potential amplitudes (E) are expressed as percentage change relative to baseline values (n = 6–8 per group). Statistical analysis was performed using a 2-way ANOVA with Bonferroni’s post hoc test. **P < 0.01, ***P < 0.001, ****P < 0.0001, compared with baseline values. […] Data are shown as mean ± SEM. […]
(§2) transfected with transporters of interest, including hOAT1, hOAT3, hOAT4, hOATP1A2, hOATP3A1, hOATP4A1, hOATP5A1, hOATP1C1, hOATP1B1, hOATP1B3, hOATP2B1, hOCT1, hOCT2, hOCTN1, hOCTN2, hASBT, hNTCP, hNPT1, hMATE1, hOSTα/β, hPEPT1, hPEPT2, rOatp1a1, rOatp1a4, rOatp1a5, rOatp1b2, rNtcp, rAsbt, rOat1, and rOct1. Cells were transfected with expression plasmid or vector control lacking any insert using Lipofectin reagent (Invitrogen). […] The cellular radioactivity was quantified by liquid scintillation counting as described above. […]
(§3) Samples were analyzed using real-time quantitative PCR and Taqman Probes (Applied Biosystems). The relative gene expression was determined using the ΔΔCt method, and normalized to the mouse or human housekeeping gene, GAPDH. […]

[2] = molecular target: hNPT1 (Homo sapiens, UniProt Q14916); test: Vincristine uptake screen, HeLa cells overexpressing hNPT1
hNPT1, sequence (Q14916 whole entry): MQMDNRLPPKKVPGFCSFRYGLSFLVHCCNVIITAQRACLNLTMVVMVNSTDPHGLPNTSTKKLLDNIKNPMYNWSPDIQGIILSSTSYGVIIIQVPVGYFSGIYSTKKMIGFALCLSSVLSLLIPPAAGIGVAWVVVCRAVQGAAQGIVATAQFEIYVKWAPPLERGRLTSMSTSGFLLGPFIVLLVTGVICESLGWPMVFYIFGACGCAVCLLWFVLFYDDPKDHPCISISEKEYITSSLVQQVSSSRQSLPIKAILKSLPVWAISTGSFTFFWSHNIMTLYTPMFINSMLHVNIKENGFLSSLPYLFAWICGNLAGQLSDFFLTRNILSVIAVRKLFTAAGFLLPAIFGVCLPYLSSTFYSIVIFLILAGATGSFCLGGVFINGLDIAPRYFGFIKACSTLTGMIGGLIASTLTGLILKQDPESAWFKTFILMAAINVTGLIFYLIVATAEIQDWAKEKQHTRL
Protocol: as §1
as §2, with “(Invitrogen). Sixteen hours thereafter, cells were washed with transport media (OPTIMEM, Invitrogen) and treated with radiolabeled drug.” for “(Invitrogen).”

[3] = molecular target: hOATP1A2 (Homo sapiens, UniProt P46721); test: Vincristine uptake screen, HeLa cells overexpressing hOATP1A2
hOATP1A2, sequence (P46721 whole entry): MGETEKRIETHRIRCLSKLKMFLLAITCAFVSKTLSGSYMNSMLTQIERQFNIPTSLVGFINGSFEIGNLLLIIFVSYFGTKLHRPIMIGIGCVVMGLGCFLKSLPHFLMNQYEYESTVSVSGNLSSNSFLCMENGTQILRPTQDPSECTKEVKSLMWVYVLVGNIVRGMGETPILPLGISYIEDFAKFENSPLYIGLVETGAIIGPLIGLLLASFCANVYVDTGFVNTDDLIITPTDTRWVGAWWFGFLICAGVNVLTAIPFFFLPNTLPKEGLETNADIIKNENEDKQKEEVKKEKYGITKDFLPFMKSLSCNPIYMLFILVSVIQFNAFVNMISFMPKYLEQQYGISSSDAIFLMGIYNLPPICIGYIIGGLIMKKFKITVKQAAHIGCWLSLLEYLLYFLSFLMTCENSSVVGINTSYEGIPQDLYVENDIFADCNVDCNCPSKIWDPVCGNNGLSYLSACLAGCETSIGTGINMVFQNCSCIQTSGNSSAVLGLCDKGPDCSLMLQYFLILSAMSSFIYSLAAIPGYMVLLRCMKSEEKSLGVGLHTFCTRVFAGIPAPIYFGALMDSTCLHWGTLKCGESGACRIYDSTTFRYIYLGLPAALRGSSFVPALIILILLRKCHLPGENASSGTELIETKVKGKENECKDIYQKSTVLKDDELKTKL
Protocol: as §1, §2, §3

hASBT, sequence (Q12908 whole entry): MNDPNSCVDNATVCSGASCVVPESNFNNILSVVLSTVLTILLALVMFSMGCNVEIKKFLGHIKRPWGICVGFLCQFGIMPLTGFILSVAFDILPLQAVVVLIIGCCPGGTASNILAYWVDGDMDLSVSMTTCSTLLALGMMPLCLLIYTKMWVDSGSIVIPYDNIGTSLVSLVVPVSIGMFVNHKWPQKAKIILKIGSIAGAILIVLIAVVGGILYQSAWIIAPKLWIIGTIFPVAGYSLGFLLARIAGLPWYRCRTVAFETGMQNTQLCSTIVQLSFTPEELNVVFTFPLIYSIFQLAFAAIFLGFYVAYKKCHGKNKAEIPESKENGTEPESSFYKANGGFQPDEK

Compound: CC[C@]1(O)C[C@H]2CN(CCc3c([nH]c4ccccc34)[C@@](C(=O)OC)(c3cc4c(cc3OC)N(C=O)[C@H]3[C@@](O)(C(=O)OC)[C@H](OC(C)=O)[C@]5(CC)C=CCN6CC[C@]43[C@@H]65)C2)C1 [Vincristine, vincristine]
- Vincristine uptake (% of vector control) [1]: 91.00 % of vector control and 82.00 % of vector control and 85.00 % of vector control and 81.00 % of vector control and 114.00 % of vector control and 83.00 % of vector control and 69.00 % of vector control and 101.00 % of vector control
- Vincristine uptake (% of vector control) [2]: 120.00 % of vector control and 91.00 % of vector control and 99.00 % of vector control and 72.00 % of vector control and 100.00 % of vector control and 104.00 % of vector control and 113.00 % of vector control
- Vincristine uptake (% of vector control) [3]: 186.00 % of vector control and 176.00 % of vector control and 142.00 % of vector control and 167.00 % of vector control and 183.00 % of vector control and 171.00 % of vector control and 148.00 % of vector control and 164.00 % of vector control
